Experiments:
[1] = Glycerine vs Bio-PDO - Efficacy (deodorant actives, in vivo human)
[2] = Glycerine vs Bio-PDO - Stability (Efficacy/shelf-life); details: active in GLYCERINE; in vivo (human)
[3] = Glycerine vs Bio-PDO - Stability (Shrinkage - 3 months); format: physicochemical
[4] = Glycerine vs Bio-PDO - Irritation (in vivo human)

Compound	Efficacy, # hours ([1]; active in Bio-PDO) [h]	Efficacy, # hours ([1]; active in GLYCERINE) [h]	Stability (Efficacy/shelf-life), # months [2] [months]	Stability (Shrinkage - 3 months), % in product ([3]; active in Bio-PDO) [%]	Stability (Shrinkage - 3 months), % in product ([3]; active in GLYCERINE) [%]	Irritation, Ranking 1-10 ([4]; active in Bio-PDO)	Irritation, Ranking 1-10 ([4]; active in GLYCERINE)
CCCCCCCCCCCC(=O)OCC(O)CO (stereo not drawn) [GML, Glyceryl monolaurate]	12	4	6	3	0	0	0
polyglyceryl-3 caprylate [polyglycerol 3 caprylate]	12	0	–	–	–	–	–
